The target in this experiment is T1, TRPV1 (transient receptor potential vanilloid 1, capsaicin receptor) (Rattus norvegicus, UniProt O35433).
T1 construct: full-length wild-type rat TRPV1 in pcDNA3.1(+), transient transfection in HEK 293 cells; fura-2 Ca2+ imaging
Put plainly: fura-2 Ca2+ imaging concentration-response in TRPV1-expressing HEK […] cells; whole-cell patch clamp, cobalt uptake, Y511A mutant and competition with capsaicin. It counts as cell-based.

Results on one compound are retold here after PMC2576176, “Direct activation of Transient Receptor Potential Vanilloid 1(TRPV1) by Diacylglycerol (DAG)” (Molecular Pain, 2008).

Broadly, the EC50 is the midpoint of the concentration-response curve. The low end stands for higher potency in that assay, the high end for lower potency in that assay.

T1 sequence (O35433 whole entry): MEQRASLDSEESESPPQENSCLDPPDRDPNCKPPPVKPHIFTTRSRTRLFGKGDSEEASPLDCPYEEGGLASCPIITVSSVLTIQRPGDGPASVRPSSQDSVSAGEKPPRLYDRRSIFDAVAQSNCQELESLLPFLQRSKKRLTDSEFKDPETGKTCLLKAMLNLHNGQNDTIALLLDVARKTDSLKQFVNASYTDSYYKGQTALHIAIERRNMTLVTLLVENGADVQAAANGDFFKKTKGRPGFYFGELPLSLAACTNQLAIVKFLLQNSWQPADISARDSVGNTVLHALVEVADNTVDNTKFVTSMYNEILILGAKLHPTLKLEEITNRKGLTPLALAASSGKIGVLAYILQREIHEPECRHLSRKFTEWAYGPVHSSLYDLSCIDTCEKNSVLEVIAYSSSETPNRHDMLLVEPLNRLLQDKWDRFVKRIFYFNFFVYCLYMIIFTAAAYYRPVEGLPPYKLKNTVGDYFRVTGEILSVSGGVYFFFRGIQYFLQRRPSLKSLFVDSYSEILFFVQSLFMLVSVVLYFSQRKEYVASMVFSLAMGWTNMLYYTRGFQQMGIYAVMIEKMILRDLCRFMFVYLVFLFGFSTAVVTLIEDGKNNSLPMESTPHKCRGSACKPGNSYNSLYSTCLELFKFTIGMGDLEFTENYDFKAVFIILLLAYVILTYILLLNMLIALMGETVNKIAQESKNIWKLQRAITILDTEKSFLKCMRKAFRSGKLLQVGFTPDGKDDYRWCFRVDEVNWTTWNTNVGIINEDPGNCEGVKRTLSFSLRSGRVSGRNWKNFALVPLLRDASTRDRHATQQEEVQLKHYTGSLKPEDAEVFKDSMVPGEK

Regarding `CCCCCCCC/C=C\CCCCCCCC(=O)OC[C@H](CO)OC(C)=O` [OAG, 1-oleoyl-2-acetyl-sn-glycerol], the EC50 amounted to 13 µM.
